Where two headings read alike, the source gives them in different places.

For one assay, the target named is T1, NmNEPS1 (Nepeta racemosa, UniProt A0A3Q8GL18).
T1 construct: gene NEPS1
Particulars: NADPH, 5 mM NAD+, pH 8, 30 °C.

For assay [1], the target named is T2, NcNEPS3A (Nepeta cataria, UniProt A0A7D3QLP1, V206Q).
T2 construct: pOPINF, His-tagged; E. coli SoluBL21; Ni-NTA purified
Put plainly: end-point GC-MS coupled assay. Particulars: with 7S-ISY and 8-oxogeranial; NADPH, 5 mM NAD+; pH 8, 30 °C. Format: biochemical.

Assay [2] concerns the target T3, NcNEPS3A (Nepeta cataria, UniProt A0A7D3QLP1).
T3 construct: pOPINF, His-tagged; E. coli SoluBL21; Ni-NTA purified
The assay is described as follows: end-point GC-MS coupled assay. Format: biochemical. Particulars: nepetalactol formed in situ by the enzyme from ISY product; NADPH, 5 mM NAD+; pH 8, 30 °C.

Assay [3] addresses T4, NmNEPS3 (Nepeta racemosa, UniProt A0A3Q8GLE8).
T4 construct: gene NEPS3
Particulars: with 7S-ISY and 8-oxogeranial; pH 8, 30 °C; cyclization of 8-oxocitronellyl enol.

Assay [4] deals with T5, NmNEPS3 (Nepeta racemosa, UniProt A0A3Q8GLE8, Q206V).
T5 construct: gene NEPS3
Particulars: nepetalactol formed in situ by the enzyme from ISY product; NADPH, 5 mM NAD+; pH 8, 30 °C.

A further assay concerns the target T6, NmNEPS4 (Nepeta racemosa, UniProt A0A7D3UJX6).
T6 construct: pOPINF, His-tagged; E. coli SoluBL21; Ni-NTA purified
T6 sequence (A0A7D3UJX6 1-274): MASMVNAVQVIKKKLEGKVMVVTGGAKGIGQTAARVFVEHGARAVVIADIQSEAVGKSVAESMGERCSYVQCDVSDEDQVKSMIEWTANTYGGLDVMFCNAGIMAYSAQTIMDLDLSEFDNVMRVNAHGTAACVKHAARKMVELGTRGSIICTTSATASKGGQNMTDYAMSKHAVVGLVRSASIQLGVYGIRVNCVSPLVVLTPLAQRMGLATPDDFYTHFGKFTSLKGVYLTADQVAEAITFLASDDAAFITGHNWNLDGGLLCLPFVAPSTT
Put plainly: end-point GC-MS coupled assay. Particulars: nepetalactol formed in situ with 7S-ISY; NADPH, 5 mM NAD+; pH 8, 30 °C. Format: biochemical.

T1 sequence (A0A3Q8GL18 whole entry): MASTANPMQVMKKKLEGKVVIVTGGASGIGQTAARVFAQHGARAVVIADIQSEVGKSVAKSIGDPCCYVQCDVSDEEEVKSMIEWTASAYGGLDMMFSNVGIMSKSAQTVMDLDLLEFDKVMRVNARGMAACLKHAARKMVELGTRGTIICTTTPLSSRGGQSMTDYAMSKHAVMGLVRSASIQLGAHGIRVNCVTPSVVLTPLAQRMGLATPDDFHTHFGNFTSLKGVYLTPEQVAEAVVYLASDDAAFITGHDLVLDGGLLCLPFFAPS
T4 sequence (A0A3Q8GLE8 whole entry): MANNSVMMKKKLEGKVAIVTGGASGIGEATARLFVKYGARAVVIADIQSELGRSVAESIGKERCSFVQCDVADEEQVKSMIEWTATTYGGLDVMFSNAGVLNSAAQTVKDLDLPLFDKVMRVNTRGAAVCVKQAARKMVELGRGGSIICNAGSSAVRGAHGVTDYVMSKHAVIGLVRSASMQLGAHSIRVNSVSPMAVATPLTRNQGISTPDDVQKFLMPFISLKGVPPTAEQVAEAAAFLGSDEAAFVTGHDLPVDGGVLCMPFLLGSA
T5 sequence (A0A3Q8GLE8 whole entry Q206V): as the sequence (A0A3Q8GLE8 whole entry) above, with Q206V counted along it
T2 sequence (A0A7D3QLP1 entry or part of it V206Q): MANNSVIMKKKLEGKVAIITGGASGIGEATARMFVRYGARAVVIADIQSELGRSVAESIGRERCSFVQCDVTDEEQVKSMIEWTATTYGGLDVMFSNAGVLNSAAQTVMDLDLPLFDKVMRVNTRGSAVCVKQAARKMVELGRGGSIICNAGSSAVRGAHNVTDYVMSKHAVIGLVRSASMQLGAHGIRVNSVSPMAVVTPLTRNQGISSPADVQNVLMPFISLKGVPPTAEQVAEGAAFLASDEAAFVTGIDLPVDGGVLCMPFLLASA
T3 sequence (A0A7D3QLP1 entry or part of it): as the sequence (A0A7D3QLP1 entry or part of it V206Q) above, with Q206V counted along it

With `CC1=COC(O)[C@@H]2[C@@H]1CC[C@@H]2C` (stereo partly drawn) [3c, 7S-trans-cis nepetalactol], at NmNEPS1 (nepetalactol formed in situ with 7S-ISY and cyclase), the “end-point GC-MS coupled assay” value is “NmNEPS1 is able to oxidize both 3c and 7S-cis-trans nepetalactol 3a”.
On to `CC1=COC(O)[C@H]2[C@@H](C)CC[C@@H]12` (stereo partly drawn) [3b, 7S-cis-cis nepetalactol], for which the “end-point GC-MS coupled assay” value at NcNEPS3A [1] is given as “NcNEPS3A-V206Q produces only 3b”; on NcNEPS3A [2] it was “only NcNEPS3A can oxidize 7S-cis-cis nepetalactol 3b”; on NmNEPS3 [3], “NmNEPS3 (N. mussinii), which produces 7S-cis-cis nepetalactol 3b”; at NmNEPS3 [4], “NmNEPS3-Q206V mutant has restored oxidation activity”.
Consider `CC1=COC(O)[C@H]2[C@@H]1CC[C@@H]2C` (stereo partly drawn) [3a, 7S-cis-trans nepetalactol], for which the “end-point GC-MS coupled assay” value is “NmNEPS1 is able to oxidize both 3c and 7S-cis-trans nepetalactol 3a” on NmNEPS1 (nepetalactol formed in situ with 7S-ISY); “NmNEPS4 can only oxidize 3a (Fig. 3A)” at NmNEPS4.

(Values after paper PMC9372074, “Biocatalytic routes to stereo-divergent iridoids” (Nature Communications, 2022).)
